{"source": "the supplement of paper PMC10307832", "experiment_in_all_cases": "relative viability (nuclei count vs DMSO), 5 days (fraction); higher = more cells survive", "key": {"[1]": {"compound": "C1CNCCC1C2=CC(=NN2)C3=CC=NC=C3 + CC(=O)c1c(C)c2cnc(Nc3ccc(N4CCNCC4)cn3)nc2n(C2CCCC2)c1=O [Palbociclib] (partner 0.5 µM)", "summary_of_the_method": "(§1)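 Each reported value is a median over duplicate plates. It expresses relative viability: treated-well nuclei count divided by vehicle-well nuclei count. Lung cancer cell lines in 1536-well plates were dosed by pin tool a day after seeding, alone with one drug or with a fixed anchor-drug dose plus five library-drug doses (not always all listed) in √10 steps, and nuclei were counted after 5 days.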"}, "[2]": {"compound": "C1CNCCC1C2=CC(=NN2)C3=CC=NC=C3 + CCNC(=O)c1noc(-c2cc(C(C)C)c(O)cc2O)c1-c1ccc(CN2CCOCC2)cc1 [Luminespib] (partner 0.01 µM)", "summary_of_the_method": "as §1"}, "[3]": {"compound": "C[C@@H](N)c1ccc(C(=O)Nc2ccnc3[nH]ccc23)cc1 + Cc1nc(NC(=O)N2CCC[C@H]2C(N)=O)sc1-c1ccnc(C(C)(C)C(F)(F)F)c1 [Alpelisib] (partner 2 µM)", "summary_of_the_method": "as §1"}, "[4]": {"compound": "O[C@H]1CC[C@H](Nc2ncc3nc(Nc4c(F)cc(F)cc4F)n([C@H]4CCOC4)c3n2)CC1 [Tanzisertib] + C[C@@H](Oc1cc(-c2cnn(C3CCNCC3)c2)cnc1N)c1c(Cl)ccc(F)c1Cl [Crizotinib] (partner 1 µM)", "summary_of_the_method": "as §1"}}}
{"cell line": "UMC-11", "values": [{"measurement": "relative viability", "setting": "[1]; first compound 0.08 µM", "value": 0.317}, {"measurement": "relative viability", "setting": "[1]; first compound 0.8 µM", "value": 0.343}, {"measurement": "relative viability", "setting": "[1]; first compound 2.53 µM", "value": 0.325}, {"measurement": "relative viability", "setting": "[1]; first compound 8 µM", "value": 0.333}, {"measurement": "relative viability", "setting": "[2]; first compound 0.08 µM", "value": 0.959}, {"measurement": "relative viability", "setting": "[2]; first compound 0.8 µM", "value": 1.19}, {"measurement": "relative viability", "setting": "[2]; first compound 2.53 µM", "value": 1.05}, {"measurement": "relative viability", "setting": "[2]; first compound 8 µM", "value": 1.14}, {"measurement": "relative viability", "setting": "[3]; first compound 0.04 µM", "value": 1.12}, {"measurement": "relative viability", "setting": "[3]; first compound 0.1265 µM", "value": 1.05}, {"measurement": "relative viability", "setting": "[3]; first compound 0.4 µM", "value": 1.14}, {"measurement": "relative viability", "setting": "[3]; first compound 1.265 µM", "value": 0.997}, {"measurement": "relative viability", "setting": "[3]; first compound 4 µM", "value": 0.467}, {"measurement": "relative viability", "setting": "[4]; first compound 0.08 µM", "value": 0.654}, {"measurement": "relative viability", "setting": "[4]; first compound 0.253 µM", "value": 0.703}, {"measurement": "relative viability", "setting": "[4]; first compound 0.8 µM", "value": 0.631}, {"measurement": "relative viability", "setting": "[4]; first compound 2.53 µM", "value": 0.687}, {"measurement": "relative viability", "setting": "[4]; first compound 8 µM", "value": 0.675}]}
